Source: US9834558B2, “Substituted bridged urea analogs as sirtuin modulators” (GLAXOSMITHKLINE LLC, priority 2013, dated 2017)
Where two headings read alike, the source gives them in different places. Blank lines part the entries; values can stand above or below the compound they belong to.

Molecular target: T1, SIRT1 (Homo sapiens, UniProt Q96EB6)
T1 sequence (Q96EB6 1-747): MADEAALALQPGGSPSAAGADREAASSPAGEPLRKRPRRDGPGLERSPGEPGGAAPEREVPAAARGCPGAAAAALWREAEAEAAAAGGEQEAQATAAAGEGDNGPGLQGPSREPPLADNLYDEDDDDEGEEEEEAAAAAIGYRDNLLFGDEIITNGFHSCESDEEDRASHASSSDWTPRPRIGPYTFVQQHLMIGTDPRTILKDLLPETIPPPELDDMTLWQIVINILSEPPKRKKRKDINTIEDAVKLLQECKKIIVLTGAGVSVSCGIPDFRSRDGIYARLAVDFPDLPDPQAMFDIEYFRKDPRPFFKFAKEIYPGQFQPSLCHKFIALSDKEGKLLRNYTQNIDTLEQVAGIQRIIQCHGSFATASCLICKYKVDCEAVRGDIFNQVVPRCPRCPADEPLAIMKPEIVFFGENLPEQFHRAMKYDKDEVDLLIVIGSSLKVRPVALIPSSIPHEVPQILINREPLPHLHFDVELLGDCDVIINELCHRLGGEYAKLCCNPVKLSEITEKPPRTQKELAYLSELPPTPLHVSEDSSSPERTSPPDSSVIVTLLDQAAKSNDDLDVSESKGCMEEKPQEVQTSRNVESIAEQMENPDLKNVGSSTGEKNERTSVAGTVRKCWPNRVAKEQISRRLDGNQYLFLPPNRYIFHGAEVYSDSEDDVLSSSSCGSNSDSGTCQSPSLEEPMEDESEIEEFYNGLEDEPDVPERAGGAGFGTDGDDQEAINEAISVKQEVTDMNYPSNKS
Assay: Trp mass spectrometry assay of SIRT1 activation
Format: biochemical
Details: for TRP Activity (EC1.5): EC1.5 = concentration that results in 150% activation of SIRT1
Summary of the method: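 Activation read-out: mass-spec measurement of O-acetyl-ADP-ribose or deacetylated Trp peptide versus compound-free controls, giving EC1.5 and Percent Maximum Activation. Reactions ran 25 min at 25 °C, pH 7.5, with 120 μM βNAD+, 0.5 μM acetylated p53-derived peptide and 10 nM His-tagged SIRT1.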

[1] = Trp mass spectrometry assay, EC1.5 = concentration of test compound that results in 150% activation of SIRT1
[2] = Trp peptide assay, maximum activity relative to control (100%), read-out: TRP MAX RESP (percent maximum fold activation)
[3] = concentration giving 150% activation of SIRT1, Trp peptide substrate
[4] = Trp mass spectrometry assay, concentration of test compound giving 150% activation of SIRT1
[5] = Trp peptide substrate, concentration giving 150% activation of SIRT1

Tryp AVG EC1.5 (μM) [1]: A (A (EC1.5<1 μM))
Compound: O=C(Nc1cnccn1)N1c2nc(-c3cncc(C(F)(F)F)c3)ccc2N2CCC[C@H]1C2 [Example 452]

Tryp AVG EC1.5 (μM) [1]: A (A (EC1.5<1 μM))
Compound: Cc1cncc(-c2ccc3c(n2)N(C(=O)Nc2nc(C)c(C)s2)[C@H]2CCCN3C2)c1 [Example 507]

TRP Activity (EC1.5) (Trp peptide assay): A (A (EC1.5<1 μM)) | Emax [2]: > 150%
Compound: COc1cc(-c2ccc3c(n2)N(C(=O)Nc2cnccn2)[C@H]2CCN3C2)cc(C)n1 [(9S)-5-(2-methoxy-6-methylpyridin-4-yl)-N-(pyrazin-2-yl)-1,6,8-triazatricyclo[7.2.1.0 {2,7}]dodeca-2(7),3,5-triene-8-carboxamide]

Tryp AVG EC1.5 (μM) [3]: A (A (EC1.5<1 μM))
Compound: O=C(Nc1cccc(-c2ccccc2)c1)N1c2nc(-c3cccc(C(F)(F)F)c3)ccc2N2CC[C@H]1C2 [Example 625]

TRP Activity (EC1.5) (Trp peptide assay): B (B (EC1.5 1-25 μM)) | Emax [2]: > 150%
Compound: Cc1cc(-c2ccc3c(n2)N(C(=O)Nc2cnccn2)[C@@H]2CCN3C2)ccn1 [(9R)-5-(2-methylpyridin-4-yl)-N-(pyrazin-2-yl)-1,6,8-triazatricyclo[7.2.1.0 {2,7}]dodeca-2(7),3,5-triene-8-carboxamide]

Tryp AVG EC1.5 (μM) [4]: A (A (EC1.5<1 μM))
Compound: O=C(Nc1cccnc1)N1c2nc(-c3cncc(C(F)(F)F)c3)ccc2N2CC[C@H]1C2 [Example 392]

Tryp AVG EC1.5 (μM) [4]: B (B (EC1.5 1-25 μM))
Compound: COc1cc(NC(=O)N2c3nc(-c4ccnc(N5CCC(C(F)(F)F)C5)c4)ccc3N3CC[C@H]2C3)ncn1 (stereo partly drawn) [Example 368]

TRP Activity (EC1.5) (Trp peptide assay): B (B (EC1.5 1-25 μM)) | Emax [2]: > 150%
Compound: O=C(Nc1cnccn1)N1c2nc(N3CCO[C@H](C(F)(F)F)C3)ccc2N2CC[C@H]1C2 [drawing 1226, (9S)-N-(pyrazin-2-yl)-5-[(2S)-2-(trifluoromethyl)morpholin-4-yl]-1,6,8-triazatricyclo[7.2.1.0 {2,7}]dodeca-2(7),3,5-triene-8-carboxamide]

Tryp AVG EC1.5 (μM) [3]: B (B (EC1.5 1-25 μM))
Compound: O=C(Nc1ccncn1)N1c2nc(-c3cccc(C(F)(F)F)c3)ccc2N2C[C@@H](O)[C@H]1C2 [Example 669]

Tryp AVG EC1.5 (μM) [1]: B (B (EC1.5 1-25 μM))
Compound: CCCn1cc(-c2ccc3c(n2)N(C(=O)Nc2cccnc2)[C@H]2CCN3C2)cn1 [Example 487]

Tryp AVG EC1.5 (μM) [1]: A (A (EC1.5<1 μM))
Compound: O=C(Nc1cccnc1)N1c2nc(-c3cccc(C(F)(F)F)c3)ccc2N2CCC1CC2 [Example 485]

Tryp AVG EC1.5 (μM) [5]: B (B (EC1.5 1-25 μM))
Compound: Cc1cc(C)nc(NC(=O)N2c3nc(-c4cccc(Cl)c4)ccc3N3CC[C@H]2C3)c1 [Example 105]

TRP Activity (EC1.5) (Trp peptide assay): A (A (EC1.5<1 μM)) | Emax [2]: > 150%
Compound: O=C(Nc1ccncn1)N1c2nc(-c3ccnc(C(F)(F)F)c3)ccc2N2CCC[C@H]1C2 [(9S)-N-(pyrimidin-4-yl)-5-[2-(trifluoromethyl)pyridin-4-yl]-1,6,8-triazatricyclo[7.3.1.0 {2,7}]trideca-2(7),3,5-triene-8-carboxamide]

Tryp AVG EC1.5 (μM) [1]: B (B (EC1.5 1-25 μM))
Compound: Cc1ccc(-c2ccc3c(n2)N(C(=O)Nc2cccnn2)[C@H]2CCCN3C2)cn1 [Example 467]

TRP Activity (EC1.5) (Trp peptide assay): B (B (EC1.5 1-25 μM)) | Emax [2]: > 150%
Compound: Cc1ccc(-c2ccc3c(n2)N(C(=O)NCC(F)(F)F)[C@H]2CCN3C2)cn1 [(9S)-5-(6-methylpyridin-3-yl)-N-(2,2,2-trifluoroethyl)-1,6,8-triazatricyclo[7.2.1.0^{2,7}]dodeca-2(7),3,5-triene-8-carboxamide]

TRP Activity (EC1.5) (Trp peptide assay): A (A (EC1.5<1 μM)) | Emax [2]: > 150%
Compound: O=C(Nc1ccccn1)N1c2nc(N3CCC[C@@H]3C(F)(F)F)ccc2N2CC[C@H]1C2 [(9S)-N-(pyridin-2-yl)-5-[(2R)-2-(trifluoromethyl)pyrrolidin-1-yl]-1,6,8-triazatricyclo[7.2.1.0 {2,7}]dodeca-2(7),3,5-triene-8-carboxamide]

TRP Activity (EC1.5) (Trp peptide assay): B (B (EC1.5 1-25 μM)) | Emax [2]: > 150%
Compound: Cc1ncc(-c2ccc3c(n2)N(C(=O)Nc2cnccn2)[C@H]2CCN3C2)o1 [(9S)-5-(2-methyl-1,3-oxazol-5-yl)-N-(pyrazin-2-yl)-1,6,8-triazatricyclo[7.2.1.0 {2,7}]dodeca-2(7),3,5-triene-8-carboxamide]

TRP Activity (EC1.5) (Trp peptide assay): A (A (EC1.5<1 μM)) | Emax [2]: > 150%
Compound: O=C(Nc1cncc(F)c1)N1c2nc(-c3ccnc(C(F)(F)F)c3)ccc2N2CCC[C@H]1C2 [(9S)-N-(5-fluoropyridin-3-yl)-5-[2-(trifluoromethyl)pyridin-4-yl]-1,6,8-triazatricyclo[7.3.1.0 {2,7}]trideca-2(7),3,5-triene-8-carboxamide]

TRP Activity (EC1.5) (Trp peptide assay): B (B (EC1.5 1-25 μM)) | Emax [2]: > 150%
Compound: Cc1cc(-c2ccc3c(n2)N(C(=O)NCc2cccnc2)[C@H]2CCN3C2)ccn1 [(9S)-5-(2-methylpyridin-4-yl)-N-(pyridin-3-ylmethyl)-1,6,8-triazatricyclo[7.2.1.0 {2,7}]dodeca-2(7),3,5-triene-8-carboxamide]

TRP Activity (EC1.5) (Trp peptide assay): B (B (EC1.5 1-25 μM)) | Emax [2]: > 150%
Compound: CNc1cc(-c2ccc3c(n2)N(C(=O)Nc2cnccn2)[C@H]2CCN3C2)ccn1 [(9S)-5-[2-(methylamino)pyridin-4-yl]-N-(pyrazin-2-yl)-1,6,8-triazatricyclo[7.2.1.0 {2,7}]dodeca-2(7),3,5-triene-8-carboxamide]

Tryp AVG EC1.5 (μM) [1]: A (A (EC1.5<1 μM))
Compound: Cc1cncc(-c2ccc3c(n2)N(C(=O)Nc2ccccn2)[C@H]2CCCN3C2)c1 [Example 504]

Tryp AVG EC1.5 (μM) [4]: C (C (EC1.5>25 μM))
Compound: CC(C)(C)OC(=O)N1CCCN(c2ccc3c(n2)N(C(=O)Nc2ccncn2)[C@H]2CCCN3C2)CC1 [Example 382]

Tryp AVG EC1.5 (μM) [3]: A (A (EC1.5<1 μM))
Compound: NCCCCCC(=O)NCc1cccc(NC(=O)N2c3nc(-c4cccc(C(F)(F)F)c4)ccc3N3CCC[C@H]2C3)c1 [Example 756]

Tryp AVG EC1.5 (μM) [3]: A (A (EC1.5<1 μM))
Compound: O=C(Nc1ccccn1)N1c2nc(-c3cccc(C(F)(F)F)c3)ccc2N2CC[C@H]1C2 [816 (7)]

Tryp AVG EC1.5 (μM) [3]: B (B (EC1.5 1-25 μM))
Compound: O=C(NCCCn1ccnc1)N1c2nc(-c3cccc(C(F)(F)F)c3)ccc2N2CC[C@H]1C2 [Example 627]

Tryp AVG EC1.5 (μM) [3]: A (A (EC1.5<1 μM))
Compound: O=C(CCCCCNC(=O)c1ccc2c(c1)C(=O)OC21c2ccc(O)cc2Oc2cc(O)ccc21)NCc1ncc(-c2cccc(NC(=O)N3c4nc(-c5cccc(C(F)(F)F)c5)ccc4N4CC[C@H]3C4)c2)o1 [Example 708]

Tryp AVG EC1.5 (μM) [3]: A (A (EC1.5<1 μM))
Compound: CC(C)(C)OC(=O)NCC#Cc1ccc(NC(=O)N2c3nc(-c4cccc(C(F)(F)F)c4)ccc3N3CC[C@H]2C3)cc1-c1cnco1 [Example 751]

Emax (Trp peptide substrate, percent maximum fold activation of SIRT1, read-out: Tryp % Fold Act): > 150%
Compound: O=C(Nc1cc(F)ccn1)N1c2nc(-c3cccc(OC(F)(F)F)c3)ccc2N2CC[C@H]1C2 [Compound 174]

Tryp AVG EC1.5 (μM) [4]: A (A (EC1.5<1 μM))
Compound: COc1cncc(NC(=O)N2c3nc(-c4cccc(N5CCCC5)c4)ccc3N3CC[C@H]2C3)n1 [Example 366]

Tryp AVG EC1.5 (μM) [5]: A (A (EC1.5<1 μM))
Compound: O=C(Nc1cccc(-c2cnco2)c1)N1c2nc(-c3cccc(C(F)(F)F)c3)ccc2N2CC[C@H]1C2 [68 (1)]

Tryp AVG EC1.5 (μM) [3]: A (A (EC1.5<1 μM))
Compound: O=C(Nc1nnc(-c2ccccc2)o1)N1c2nc(-c3cccc(C(F)(F)F)c3)ccc2N2CC[C@H]1C2 [Example 719]

Tryp AVG EC1.5 (μM) [1]: C (C (EC1.5>25 μM))
Compound: Cc1ccncc1-c1ccc2c(n1)N(C(=O)Nc1ccncn1)[C@H]1CCCN2C1 [Example 518]

Tryp AVG EC1.5 (μM) [1]: A (A (EC1.5<1 μM))
Compound: CC(C)(C)OC(=O)N1CCC(c2cccc(NC(=O)N3c4nc(-c5cccc(C(F)(F)F)c5)ccc4N4CC[C@H]3C4)c2)C1 (stereo partly drawn) [Example 592]

Tryp AVG EC1.5 (μM) [1]: A (A (EC1.5<1 μM))
Compound: CC(C)(C)OC(=O)NCCn1cc(-c2cccc(NC(=O)N3c4nc(-c5cccc(C(F)(F)F)c5)ccc4N4CCC[C@H]3C4)c2)nn1 [Example 604]

Tryp AVG EC1.5 (μM) [1]: B (B (EC1.5 1-25 μM))
Compound: Cc1cc(-c2ccc3c(n2)N(C(=O)Nc2cnc(OC[C@@H](O)CO)cn2)[C@H]2CCN3C2)ccn1 [Example 561]

Tryp AVG EC1.5 (μM) [1]: C (C (EC1.5>25 μM))
Compound: O=C(CCCCCNC(=O)c1ccc(-c2c3ccc(=O)cc-3oc3cc(O)ccc23)c(C(=O)O)c1)NCc1ccc(NC(=O)N2c3nc(-c4cccc(C(F)(F)F)c4)ccc3N3CC[C@H]2C3)cc1 [Example 547]

Tryp AVG EC1.5 (μM) [3]: B (B (EC1.5 1-25 μM))
Compound: O=C(Nc1cncc(F)c1)N1c2nc(-c3cncc(C(F)(F)F)c3)ccc2N2C[C@@H](O)[C@H]1C2 [Example 691]

Tryp AVG EC1.5 (μM) [3]: A (A (EC1.5<1 μM))
Compound: NCC#Cc1ccc(NC(=O)N2c3nc(-c4cccc(C(F)(F)F)c4)ccc3N3CC[C@H]2C3)cc1-c1cnco1 [Example 766]
